The numbers were not newly measured in patent US20080124273A1, “Novel cationic metal complex radiopharmaceuticals” (priority 2004, published 2008), which cites them from elsewhere.

The conditions of series [1]: background statement.
The conditions of series [2]: background statement. The source holds these as a separate data set.

On to `[C-]#[N+]CC(C)(C)OC.[C-]#[N+]CC(C)(C)OC.[C-]#[N+]CC(C)(C)OC.[C-]#[N+]CC(C)(C)OC.[C-]#[N+]CC(C)(C)OC.[C-]#[N+]CC(C)(C)OC.[Tc]` [^99mTc-Sestamibi], for which, in series [1], the first-pass extraction entry is listed as “low”; the “uptake in liver and lungs” value is “high”.

For `CCOCCC[P]1(CCCOCC)CCN(CCOCC)CC[P](CCCOCC)(CCCOCC)[99Tc+]12(#[N])[S]C(N(CCOCC)CCOCC)=[S]2` [^99mTcN-DBODC6, [^99mTc(N)(N(CH2CH2OEt)2(PNP6)]^+], in series [1], the T/B ratios result is “poor” and the heart uptake result is “very low”. The lipophilicity entry in series [2] is listed as “high”.
